Results from publication PMC5128008, “Antimicrobial activity and stability of the D-amino acid substituted derivatives of antimicrobial peptide polybia-MPI” (AMB Express, 2016).
Where a SMILES comes first, the peptide text is derived from it. [ ]: non-standard residue; d: D form.

Tested on: all tested bacterial and fungal strains
Assay: MIC, broth microdilution, summary over the panel
Format: cell-based
Conditions: summary of Table 1, "almost in the range"
Protocol: The minimal inhibitory concentration (MIC) of the peptides was measured in triplicate by the standard broth microdilution method (Peterson et al. [1980]; Wang et al. [2012]). In brief, bacteria/fungi were cultured overnight to mid-logarithmic-phase in Mueller–Hinton broth (MHB)/Sabouraud dextrose broth. The cultures were diluted to a final concentration of 2 × 10^4 cfu/ml in fresh Mueller–Hinton broth (MHB)/Sabouraud dextrose broth. Each well of 96-well propylene microtitre plates was filled with 100 µl cell suspension and 100 μl peptide solution of twofold diluted serially. And the final concentrations of peptide mixtures ranged from 1 to 256 µM. Controls were done without peptides. After 18 h of incubation at 37 °C (bacteria)/35 °C (fungi), the minimal inhibitory concentration (MIC) of the peptides was evaluated by visible turbidity in each well.

## CC[C@@H](C)[C@@H](N)C(=O)N[C@H](CC(=O)O)C(=O)N[C@H](Cc1c[nH]c2ccccc12)C(=O)N[C@H](CCCCN)C(=O)N[C@H](CCCCN)C(=O)N[C@H](CC(C)C)C(=O)N[C@H](CC(C)C)C(=O)N[C@H](CC(=O)O)C(=O)N[C@H](C)C(=O)N[C@H](C)C(=O)N[C@H](CCCCN)C(=O)N[C@H](CCC(N)=O)C(=O)N[C@@H](C(=O)N[C@H](CC(C)C)C(N)=O)[C@H](C)CC [D-MPI] (H-[dI][dD][dW][dK][dK][dL][dL][dD][dA][dA][dK][dQ][dI][dL]-NH2)
  MIC values, range over all tested bacterial and fungal strains: 8 to 64 µM
